According to doi:10.1101/2023.01.30.526200v1, “The virus-encoded ion channel “viroporin” activity of the agnoprotein is required for BK Polyomavirus release from infected kidney cells” (biorxiv, 2023):

Columns and labels:
[1] = molecular target: T1, BKPyV agnoprotein (recombinant 10xHis BK agnoprotein) (Betapolyomavirus hominis, UniProt P03085); test: carboxyfluorescein release from liposomes, endpoint fluorescence; format: biochemical; conditions: recombinant protein pre-incubated with compound 10 min at room temperature; PA/PC liposomes, HBS pH 7.4; compound concentration not in text
T1 construct: full-length, N-terminal 10xHis tag kept (pET19b, codon optimised), expressed in E. coli, purified by Ni-NTA, cation exchange and C4, dissolved in DMSO; SDS-resistant oligomers (copy number undefined); reconstituted in PA/PC liposomes

[2] = molecular target: T1, BKPyV agnoprotein (recombinant 10xHis BK agnoprotein); test: as above; format: biochemical; conditions: recombinant protein pre-incubated with compound 10 min at room temperature; PA/PC liposomes, HBS pH 7.4; 400 uM rimantadine

T1 sequence (P03085 whole entry): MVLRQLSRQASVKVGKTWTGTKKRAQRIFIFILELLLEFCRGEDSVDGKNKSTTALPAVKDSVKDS

CCCCCCCCCN1C[C@H](O)[C@@H](O)[C@H](O)[C@H]1CO [NN-DNJ] was tested, and the “reduction in CF release” value [1] was “Addition of NN-DNJ also led to a significant reduction in agnoprotein mediated CF release”.

CC(N)C12CC3CC(CC(C3)C1)C2 (centres unmarked) [rimantadine] was tested, and the “% reduction in channel activity at 400 uM” value [2] was ~ 50%.
